How the values were obtained:
OATP2B1 = target: T1, OATP2B1 (Homo sapiens, UniProt O94956); assay: in vitro; settings: A431 cells overexpressing OATP2B1, pH 5.5, probe pyranine, 20 µM
T1 sequence (O94956 1-709): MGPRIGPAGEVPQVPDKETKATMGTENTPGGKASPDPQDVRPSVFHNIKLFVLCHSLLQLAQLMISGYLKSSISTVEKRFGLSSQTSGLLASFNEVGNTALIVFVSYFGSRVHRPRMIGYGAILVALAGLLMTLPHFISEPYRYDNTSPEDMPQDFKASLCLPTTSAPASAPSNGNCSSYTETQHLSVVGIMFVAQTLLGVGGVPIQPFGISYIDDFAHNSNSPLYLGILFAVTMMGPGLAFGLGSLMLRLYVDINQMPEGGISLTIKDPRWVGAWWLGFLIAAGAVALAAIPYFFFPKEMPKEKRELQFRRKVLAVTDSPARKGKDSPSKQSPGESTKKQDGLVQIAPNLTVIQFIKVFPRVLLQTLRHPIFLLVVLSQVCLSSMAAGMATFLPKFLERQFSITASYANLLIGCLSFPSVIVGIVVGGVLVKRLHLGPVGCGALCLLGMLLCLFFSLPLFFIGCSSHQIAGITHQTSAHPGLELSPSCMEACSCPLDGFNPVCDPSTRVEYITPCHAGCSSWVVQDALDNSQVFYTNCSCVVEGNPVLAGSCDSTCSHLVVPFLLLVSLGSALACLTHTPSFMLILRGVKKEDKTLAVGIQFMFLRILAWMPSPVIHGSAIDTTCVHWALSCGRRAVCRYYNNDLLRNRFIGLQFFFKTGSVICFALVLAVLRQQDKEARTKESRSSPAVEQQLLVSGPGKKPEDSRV

OATP1A2 = target: T2, OATP1A2 (Homo sapiens, UniProt P46721); assay: in vitro; settings: A431 cells overexpressing OATP1A2, pH 7, probe sulforhodamine 101, 0.5 µM
T2 sequence (P46721 1-670): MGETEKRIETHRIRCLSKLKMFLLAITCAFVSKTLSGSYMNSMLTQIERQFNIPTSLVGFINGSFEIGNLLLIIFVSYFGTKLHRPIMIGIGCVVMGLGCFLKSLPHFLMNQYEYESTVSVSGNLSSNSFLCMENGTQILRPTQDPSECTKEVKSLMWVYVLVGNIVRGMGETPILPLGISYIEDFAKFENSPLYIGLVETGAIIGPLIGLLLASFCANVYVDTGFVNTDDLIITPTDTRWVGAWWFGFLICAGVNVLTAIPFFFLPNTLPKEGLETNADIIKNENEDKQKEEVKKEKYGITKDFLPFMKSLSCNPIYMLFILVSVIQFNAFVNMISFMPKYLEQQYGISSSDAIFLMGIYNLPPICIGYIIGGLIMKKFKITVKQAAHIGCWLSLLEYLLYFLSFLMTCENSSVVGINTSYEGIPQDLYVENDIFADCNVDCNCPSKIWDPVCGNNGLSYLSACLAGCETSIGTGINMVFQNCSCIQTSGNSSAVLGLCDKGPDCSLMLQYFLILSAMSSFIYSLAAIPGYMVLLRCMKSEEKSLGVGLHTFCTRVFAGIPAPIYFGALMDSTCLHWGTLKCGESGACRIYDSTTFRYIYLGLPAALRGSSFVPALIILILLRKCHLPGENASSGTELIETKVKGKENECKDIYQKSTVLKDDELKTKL

[1] = cited from earlier work
ABCG2/BCRP = target: T3, ABCG2/BCRP (Homo sapiens, UniProt Q9UNQ0); assay: ABCG2-ATPase activity in Sf9 membrane vesicles; format: biochemical; set-up: expressed in transfected cells; host or cells: PLB-985; settings: Sf9/ABCG2 membranes
T3 sequence (Q9UNQ0 1-655): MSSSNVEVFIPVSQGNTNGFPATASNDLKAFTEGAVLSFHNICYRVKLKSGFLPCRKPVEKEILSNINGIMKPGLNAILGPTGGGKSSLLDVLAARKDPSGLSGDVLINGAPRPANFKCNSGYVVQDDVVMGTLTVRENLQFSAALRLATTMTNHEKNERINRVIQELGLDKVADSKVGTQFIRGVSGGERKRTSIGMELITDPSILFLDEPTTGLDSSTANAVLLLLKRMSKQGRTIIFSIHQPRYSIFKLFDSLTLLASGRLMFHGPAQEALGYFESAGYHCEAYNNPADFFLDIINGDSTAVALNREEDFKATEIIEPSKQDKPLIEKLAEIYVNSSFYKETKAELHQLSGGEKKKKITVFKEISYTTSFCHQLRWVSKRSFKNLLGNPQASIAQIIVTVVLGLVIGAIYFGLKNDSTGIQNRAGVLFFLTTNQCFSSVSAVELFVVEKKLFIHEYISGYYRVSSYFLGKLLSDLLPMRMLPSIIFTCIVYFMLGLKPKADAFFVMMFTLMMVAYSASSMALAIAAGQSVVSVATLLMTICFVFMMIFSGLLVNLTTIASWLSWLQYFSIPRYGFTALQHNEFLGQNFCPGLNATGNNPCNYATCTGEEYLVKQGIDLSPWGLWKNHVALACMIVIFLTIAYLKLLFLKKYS
Protocol: ABC transporter ATPase activity was measured in Sf9 membrane vesicles containing the respective human ABC transporters [46, 47, 48, 49, 50]. For ABCG2/BCRP, the cholesterol level in the vesicles was increased to the level of mammalian cell membranes for full activity [49]. For ABCB1/Pgp 20 μg/150 μL and for ABCG2/BCRP 10 μg/150 μL, vesicles were incubated with 3 mM Mg-ATP for 25 min at 37 °C. The test drugs were dissolved in DMSO and 1 µL was added to the samples. The ABC transporter-related ATPase activity was determined and reference activators (50 µM verapamil for ABCB1 and 5 µM quercetin for ABCG2) served as controls.
Drug-stimulated ATPase activity of the ABCG2 transporter was also measured in the present study.

ABCB1/MDR1/Pgp = ABCB1/MDR1/Pgp (Homo sapiens, UniProt P08183); assay: biochemical; settings: Estimated Transporter Inhibition IC50, ABCB1 vesicular assay, ATP-dependent NMQ uptake, HEK-293/ABCB1 inverted membrane vesicles; '-' = no inhibition
Chain of ABCB1/MDR1/Pgp (P08183 whole entry): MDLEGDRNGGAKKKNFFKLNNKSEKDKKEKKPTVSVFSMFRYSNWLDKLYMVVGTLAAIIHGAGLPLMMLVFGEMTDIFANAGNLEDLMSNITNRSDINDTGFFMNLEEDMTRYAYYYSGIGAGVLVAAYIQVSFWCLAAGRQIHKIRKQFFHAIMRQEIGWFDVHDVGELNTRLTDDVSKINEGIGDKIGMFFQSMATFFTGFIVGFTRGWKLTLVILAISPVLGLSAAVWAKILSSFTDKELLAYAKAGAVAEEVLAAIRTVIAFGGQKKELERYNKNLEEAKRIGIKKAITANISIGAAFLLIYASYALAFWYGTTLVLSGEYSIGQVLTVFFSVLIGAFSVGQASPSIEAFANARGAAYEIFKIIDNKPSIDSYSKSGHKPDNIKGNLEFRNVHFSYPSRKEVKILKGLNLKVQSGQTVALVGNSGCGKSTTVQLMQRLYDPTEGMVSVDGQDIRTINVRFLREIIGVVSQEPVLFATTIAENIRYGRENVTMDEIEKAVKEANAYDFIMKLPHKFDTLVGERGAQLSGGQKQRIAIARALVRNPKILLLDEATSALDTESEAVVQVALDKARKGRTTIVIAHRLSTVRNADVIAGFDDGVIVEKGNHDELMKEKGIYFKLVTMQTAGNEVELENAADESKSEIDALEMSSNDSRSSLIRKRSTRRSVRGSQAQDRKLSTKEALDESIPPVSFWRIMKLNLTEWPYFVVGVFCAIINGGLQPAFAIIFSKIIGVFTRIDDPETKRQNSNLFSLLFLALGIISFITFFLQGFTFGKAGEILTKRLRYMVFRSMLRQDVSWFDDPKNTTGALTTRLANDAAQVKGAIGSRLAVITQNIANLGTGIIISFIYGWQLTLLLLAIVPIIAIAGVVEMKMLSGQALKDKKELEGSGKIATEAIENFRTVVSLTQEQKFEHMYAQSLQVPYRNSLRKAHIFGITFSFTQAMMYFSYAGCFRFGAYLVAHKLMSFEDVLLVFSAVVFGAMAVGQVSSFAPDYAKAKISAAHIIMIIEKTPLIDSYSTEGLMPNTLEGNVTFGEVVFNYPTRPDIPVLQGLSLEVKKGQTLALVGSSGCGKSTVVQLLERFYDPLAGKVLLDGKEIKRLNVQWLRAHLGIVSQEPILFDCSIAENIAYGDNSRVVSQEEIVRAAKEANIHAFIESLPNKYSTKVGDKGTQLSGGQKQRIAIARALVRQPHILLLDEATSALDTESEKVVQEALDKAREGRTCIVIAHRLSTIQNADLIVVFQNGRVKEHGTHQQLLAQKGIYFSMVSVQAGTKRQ

Row | SMILES | IC50 at 15 min (OATP2B1) | IC50 at 10 min (OATP1A2) | Plasma concentration, peak values [1] | Reported peak plasma concentration ([1]; reported, reference not given) | Concentration at which baseline ABCG2-ATPase activity was inhibited (ABCG2/BCRP) | Effect on baseline ABCG2-ATPase activity (in words) (ABCG2/BCRP; ivermectin, ritonavir, lopinavir at low micromolar, remdesivir at higher concentrations) | IC50 (ABCB1/MDR1/Pgp)
1 | NC(=O)c1nc(F)c[nH]c1=O [favipiravir] | > 50 µM | > 50 µM | – | – | – | – | –
2 | CCC(CC)COC(=O)[C@H](C)N[P@](=O)(OC[C@H]1O[C@@](C#N)(c2ccc3c(N)ncnn23)[C@H](O)[C@@H]1O)Oc1ccccc1 [remdesivir] | – | – | 3 to 5 µM | about 5 μM | 20 to 50 µmol | significantly inhibited | > 20 µM
